In brackets after ≈: the same amount, converted by molar mass.
Experiments:
Phosphodiesterase PDE4 = experiment: phosphodiesterase PDE4 enzyme assay; assay type: biochemical, human; details: 100 μg/ml
Procedure: Based on the results shown in Table 6, it follows that the combined fraction (WG-I-5AB+WG-I-5C) is effective in binding to the glucocorticoid receptor (GR) site. […] This inhibitory effect implies that the combined fraction (WG-I-5AB+WG-I-5C) has a bronchodilatory effect. For the PDE4 test, PDE4 which has been partially purified from human U-937 pronocytic cells is used. The test compound and/or vehicle is incubated with 0.2 μg enzyme and 1 μM cAMP containing 0.01 μM [^3H]cAMP in Tris buffer pH 7.5 for 20 minutes at 30° C. The reaction is terminated by boiling for 2 minutes and the resulting AMP is converted to adenosine by addition of 10 mg/ml snake venom necleotidase and further incubation at 30° C. for 10 minutes. Unhydrolyzed cAMP is bound to AGI-X2 resin, and remaining [^3H]adenosine in the aqueous phase is quantified by scintillation counting. Compounds are screened at 100 μM. IBMX (3-isobutyl-1-methylxanthine) is used as standard reference agent.

[1] = system: Human T lymphocytic Jurkat cells; experiment: Cytotoxicity, Transcription Response NF-κB; assay type: cell-based
Procedure: Human T lymphocytic Jurkat cells, transfected with a response element-lacZ reporter in which transcription of the β-galactosidase gene is directed by the binding site for the NF-κB transcription factor, are used. Test compound and/or vehicle are incubated with the cells (1.5×10^6/ml) in the presence of 0.5 μM A23187 and 50 ng/ml PMA (phorbol 12-myristate 13-acetate) in RPMI-1640 pH 7.4 at 37° C. for 4 hours. Test compound-induced β-galactosidase activity is determined by the conversion of FDG (fluorescein di-β-D-galactopyranoside) to fluorescein. Fluorescence intensity is read on SpectroFluor Plus plate reader. […] […] These same concentrations are concurrently applied to a separate group of treated cells and evaluated for possible compound-induced cytotoxicity only if significant stimulation or inhibition is observed (Cat. #361100).

Lipoxygenase 5-LO = experiment: 5-lipoxygenase enzyme assay (5-LO); assay type: biochemical, human; details: 100 μg/ml
Procedure: For the 5-LO test a crude 5-lipoxygenase enzyme preparation from rat basophilic leukemia cells (RBL-1) is used. The test compound is pre-incubated with the enzyme for 5 minutes in Tris buffer pH 7.2 at room temperature. The reaction is initiated by addition of 15 μM arachidonic acid as substrate and run for an additional 8 minutes after which the reaction is terminated by addition of 70 mM citric acid and levels of 5-HETE are determined by radioimmune assay. […] NDGA (nordihydroguaretic acid) is used as standard reference agent.

[2] = system: human peripheral blood mononuclear leukocytes (PBMNL); experiment: Cytotoxicity, Mediator Release, Con A-Induced (AlamarBlue); assay type: cell-based
Procedure: (§1) For the ConA-Induced mediator release/cytotoxicity test, the test compound and/or vehicle is incubated with a suspension of human peripheral blood mononuclear leukocytes (PBMNL, 1×10^5/well) in the presence of Concanavalin A (Con A, 20 μg/ml) in RPMI buffer (pH 7.4) at 37° C. overnight in 5% CO2. AlamarBlue reagent is added and the cells are incubated at 37° C. for 16 hours. Living cells take up AlamarBlue and emit fluorescence. Fluorescence intensity is measured using a SpectraFluor Plus plate reader with excitation at 530 nm and emission at 590 nm. A decrease of 50% or more (50%) in fluorescence intensity relative to the vehicle treated controls indicates significant cytotoxicity. […] Dexamethasone is used as standard reference agent.

[3] = as above; assay type: cell-based, human; details: human, pH 7.4
Procedure: as §1

[4] = system: NF-κB transcription factor; experiment: Transcription Response, NF-κB (Jurkat lacZ reporter); assay type: cell-based, human
Excerpt: The assay is described in Lenardo M J, Baltimaore D. Lenardo M J, Baltimaore D, NF-κB: A pleiotropic mediator of inducible and tissue specific gene control. Cell. 58: 227-229, 1989, the contents of which are incorporated herein by way of reference.
Human T lymphocytic Jurkat cells, transfected with a response element-lacZ reporter in which transcription of the β-galactosidase gene is directed by the binding site for the NF-κB transcription factor, are used. Test compound and/or vehicle are incubated with the cells (1.5×10^6/ml) in the presence of 0.5 μM A23187 and 50 ng/ml PMA (phorbol 12-myristate 13-acetate) in RPMI-1640 pH 7.4 at 37° C. for 4 hours. Test compound-induced β-galactosidase activity is determined by the conversion of FDG (fluorescein di-β-D-galactopyranoside) to fluorescein. Fluorescence intensity is read on SpectroFluor Plus plate reader. […]

[5] = 10 μM, fifth (last) step of the series
[6] = 100 μM, listed as compound of formula 1

With `Cc1coc2c1C[C@H]1[C@H](C)C=CC(=O)[C@]1(C)C2` (relative stereo) [compound 1, 4,4a,5,9-tetrahydro-3,5,8a-trimethylnaptho[2,3-b]furan-8-one] the “Inhibition (%) Phosphodiesterase PDE4” value (Phosphodiesterase PDE4) was 35%, the “% RESPONSE Ant, Cytotoxicity, Transcription Response NF-κB” value (from here on “% RESPONSE Ant, Cytotoxicity”) ([1]; 0.1 μM) was 6% and the “% RESPONSE Ant, Cytotoxicity” value ([1]; 1 μM) was 2%. For the same compound, the “% RESPONSE Ant, Cytotoxicity” value ([1]; 10 μM) was 2%, the “% RESPONSE Ant, Cytotoxicity” value [1, 5] was 1% and the “% RESPONSE Ant, Cytotoxicity” value ([1]; 100 μM) was −3%. For the same compound, the “% RESPONSE Ant, Cytotoxicity” value [1, 6] was “no apparent cytotoxicity”, the “Inhibition (%) Lipoxygenase 5-LO” value (Lipoxygenase 5-LO) was 99% and the “cytotoxicity observed in mediator release bio-assays (in words)” value [2] was “Limited cytotoxicity”. The “ANT. Cytotoxicity, Mediator Release, Con A-Induced” value (“ANT. Cytotoxicity, Mediator Release” below) ([2]; 10 nM) was −1%, the “ANT. Cytotoxicity, Mediator Release” value ([2]; 0.1 μM) was 0% and the “ANT. Cytotoxicity, Mediator Release” value ([2]; 1 μM) was 18%. The “ANT. Cytotoxicity, Mediator Release” value ([2]; 10 μM) was 35%, the “ANT. Cytotoxicity, Mediator Release” value ([2]; 100 μM) was 53% and the IC50 [3] was 58.5 µM. The “% RESPONSE Ant, Transcription Response, NF-κB” value ([4]; 0.1 μM) was 0%, the “% RESPONSE Ant, Transcription Response, NF-κB” value ([4]; 1 μM) was 7% and the “% RESPONSE Ant, Transcription Response, NF-κB” value ([4]; 10 μM) was 27%. For the same compound, the “% RESPONSE Ant, Transcription Response, NF-κB” value [4, 5] was 5%, the “% RESPONSE Ant, Transcription Response, NF-κB” value ([4]; 100 μM) was 113% and the “% RESPONSE Ant, Transcription Response, NF-κB” value [4, 6] was over 100%. It also gave an IC50 ([4]; Homo sapiens, Jurkat, read-out: IC50 inhibition of NF-κB transcription factor) of 15.6 µg/mL (≈ 67.7 µM).
